Measurements reported in patent publication US20200316113A1, “USE OF COMPOSITION COMPRISING FERROUS AMINO ACID CHELATE IN MANUFACTURE OF MEDICAMENT FOR INHIBITING ANGIOGENESIS” (PROFEAT BIOTECHNOLOGY CO., LTD., priority 2017, published 2020).

Tested on: human umbilical vein endothelial cells (HUVECs)
Assay: MTT assay, effect of VEGF and Composition A1 on cell proliferation
Assay type: cell-based
Details: 0, 24, 48 and 72 hours, control group as basis
Experimental: Recombinant human vascular endothelial growth factor (VEGF) was purchased from R&D systems; Cat No. 293-VE. The HUVECs were used in the experiments. The cells were seeded in a 24-well plate at a density of 2×10^4 cells/well. The experiments include control group (not treated with VEGF) and the groups respectively treated with 1 ng/mL VEGF, 5 ng/mL VEGF, 10 ng/mL VEGF and 20 ng/mL VEGF for 0 hour, 24 hours, 48 hours and 72 hours. Each group was triplicated. The MTT assays were performed and values of OD 565 were measured in order to observe the effect of VEGF on cell growth.

VEGF was tested, and the “cell number / cell proliferation of HUVEC (OD 565, MTT)” value (shortened to “cell number / cell proliferation”) (1 ng/mL VEGF) was “not significant”, the “cell number / cell proliferation” value (5 ng/mL VEGF) was “not significant” and the “cell number / cell proliferation” value (10 ng/mL VEGF) was “increased”. The “cell number / cell proliferation” value (20 ng/mL VEGF) was “increased”.
